{"source": "patent US20120004285A1", "about": "“ERBB-3 (HER3)-SELECTIVE COMBINATION THERAPY” (ENZON PHARMACEUTICALS, INC., priority 2008, published 2012)", "type_in_all_cases": "cell-based, human", "key": {"15PC3 cells": {"system": "15PC3 cells", "test": "Cell proliferation assay (MTS), 15PC3", "details": "FIG. 3A", "procedure": "(§1) Cells were cultured in the medium as described below and maintained at 37° C. at 95% humidity and 5% CO2. Cells were routinely passaged 2-3 times weekly.\n(§2) 15PC-3 (Santaris Pharma): The human prostate cancer cell line 15PC-3 was cultured in DMEM (ATCC)+10% fetal bovine serum (FBS)+2 mM Glutamax™ I+gentamicin (25 μg/ml). A549 (ATCC): The human lung cancer cell line A549 was cultured in F12K Medium (ATCC)+10% FBS+2 mM Glutamax™ I+Penicillin (100 u/ml)/Streptomycin (100 μg/ml). DU145 (ATCC): The human prostate cancer cell line DU145 was cultured in Eagle's Minimum Essential Medium (ATCC)+10% FBS+2 mM Glutamax™ I+Penicillin (100 u/ml)/Streptomycin (100 μg/ml). […]\n(§3) . The treated cells were then subjected to proliferation assay by MTS and ErbB3 mRNA quantitation by qRT-PCR, respectively (see below). […]\n(§4) The proliferation assay was carried out by using CellTiter 96® Aqueous One solution reagent (Promega, Cat# 358B) following the manufacturer's instructions. […] The absorbance was measured at […] with a reference of 650 nm using an ELISA reader (Molecular Devices). The background for the assay was measured from wells containing only medium and was subtracted from the signal from the wells containing cells. The absorbance at 490 nm (OD490 nm) is proportional to the viable cell number in culture."}, "DU145 cells": {"system": "DU145 cells", "test": "Cell proliferation assay (MTS), DU145", "details": "FIG. 4A", "procedure": "as §1, §2, §3, §4"}, "A549 cells": {"system": "A549 cells", "test": "Cell proliferation assay (MTS), A549", "details": "FIG. 1A", "procedure": "as §1, §2, §3, §4"}, "SKBR3 cells": {"system": "SKBR3 cells", "test": "Cell proliferation assay (MTS), SKBR3", "details": "FIG. 5A", "procedure": "as §1, §2, §3, §4"}, "A431 cells": {"system": "A431 cells", "test": "Cell proliferation assay (MTS), A431", "details": "ON180 alone, Lipofectamine-2000 transfection, FIG. 6A, 6B, read-out: cell growth IC50", "procedure": "(§5) Cells were routinely passaged 2-3 times weekly.\n(§6) 15PC-3 (Santaris Pharma): The human prostate cancer cell line 15PC-3 was cultured in DMEM (ATCC)+10% fetal bovine serum (FBS)+2 mM Glutamax™ I+gentamicin (25 μg/ml). A549 (ATCC): The human lung cancer cell line A549 was cultured in F12K Medium (ATCC)+10% FBS+2 mM Glutamax™ I+Penicillin (100 u/ml)/Streptomycin (100 μg/ml). DU145 (ATCC): The human prostate cancer cell line DU145 was cultured in Eagle's Minimum Essential Medium (ATCC)+10% FBS+2 mM Glutamax™ I+Penicillin (100 u/ml)/Streptomycin (100 μg/ml). A431 (ATCC): The human epidermoid cancer cell line A431 was cultured in DMEM (ATCC)+10% fetal bovine serum (FBS)+2 mM Glutamax™ I+Penicillin (100 u/ml)/Streptomycin (100 μg/ml). SKBR-3 (ATCC): The human breast cancer cell line SKBR3 was cultured in McCoy's 5A Medium. Modified (ATCC)+10% FBS+2 mM Glutamax™ I+Penicillin (100 u/ml)/Streptomycin (100 μg/ml).\n(§7) Cells were seeded in 6-well plates (NUNC™) and treated when 50-60% confluent. The transfection of cells by ON180 was performed as described by the manufacturer using serum-free OptiMEM® (Gibco™) and 5 μg/ml Lipofectamine™-2000. ONCONT served as a negative control. The treated cells were incubated at 37° C. for 4 hours and then washed with OptiMEM®, after which regular serum-containing medium was added."}, "ErbB3 mRNA [1]": {"system": "ErbB3 mRNA", "test": "ErbB3 mRNA level by qRT-PCR in H1993 cells", "details": "ON180 alone, FIG. 2C", "procedure": "(§8) The cells were treated with either ON180 or an LNA-containing oligonucleotide having a scrambled base sequence as set forth in SEQ ID NO: 236 (hereinafter referred to as “ONCONT”) using the cationic liposome formulation Lipofectamine™-2000 (Invitrogen™) as transfection vehicle. Cells were seeded in 6-well plates (NUNC™) and treated when 50-60% confluent. The transfection of cells by ON180 was performed as described by the manufacturer using serum-free OptiMEM® (Gibco™) and 5 μg/ml Lipofectamine™-2000. ONCONT served as a negative control. The treated cells were incubated at 37° C. for 4 hours and then washed with OptiMEM®, after which regular serum-containing medium was added.\n(§9) The treated cells were then subjected to proliferation assay by MTS and ErbB3 mRNA quantitation by qRT-PCR, respectively (see below). Each experiment was performed at least two times.\n(§10) Total RNA was extracted from the treated cells as described above, using Qiagen RNeasy Plus Mini Kit (Cat# 74134). One-step qRT-PCR was used to examine ErbB3 mRNA levels in the cells by using the QuantiTect Probe RT-PCR kit (Cat#: 204443; Qiagen) according to the manufacturer's instructions. The sequences for the primers and probes were as follows: […]\n(§11) The qRT-PCR was performed on the Applied Biosystems 7500 Fast Real-Time PCR System using 120 ng of total RNA sample. GAPDH mRNA served as an internal control."}, "ErbB3 mRNA [2]": {"system": "ErbB3 mRNA", "test": "ErbB3 mRNA level by qRT-PCR in SKBR3 cells", "details": "ON180 alone, FIG. 5C", "procedure": "as §8, §9, §10, §11"}, "ErbB3 mRNA [3]": {"system": "ErbB3 mRNA", "test": "ErbB3 mRNA level by qRT-PCR in A431 cells", "details": "ON180 alone, FIG. 6C", "procedure": "as §8, §9, §10, §11"}, "ErbB3 mRNA [4]": {"system": "ErbB3 mRNA", "test": "ErbB3 mRNA level by qRT-PCR in DU145 cells", "details": "ON180 alone, FIG. 4C", "procedure": "as §8, §9, §10, §11"}, "H1993 cells": {"system": "H1993 cells", "test": "Cell proliferation assay (MTS), H1993", "details": "ON180 alone, Lipofectamine-2000 transfection, FIG. 2A, 2B, read-out: cell growth IC50", "procedure": "as §5, §6, §7"}, "ErbB3 mRNA [5]": {"system": "ErbB3 mRNA", "test": "ErbB3 mRNA level by qRT-PCR in 15PC3 cells", "details": "ON180 alone, FIG. 3C", "procedure": "as §8, §9, §10, §11"}, "ErbB3 mRNA [6]": {"system": "ErbB3 mRNA", "test": "ErbB3 mRNA level by qRT-PCR in A549 cells", "details": "ON180 alone, FIG. 1C, read-out: expression of ErbB3 mRNA IC50", "procedure": "as §8, §9, §10, §11"}}, "note": "Oligonucleotides are written 5' to 3', each unit as a sugar letter and its base; * is a phosphorothioate linkage, no mark a phosphodiester; rarer units and linkages stand in square brackets, end groups in braces. Plain capitals give the bases only. l = locked nucleic acid (LNA); [5mC] = 5-methylcytosine; d = 2'-deoxy (DNA)"}
{"compound": "COc1cc2ncnc(Nc3ccc(F)c(Cl)c3)c2cc1OCCCN1CCOCC1", "note": "[gefitinib, reference compound]", "values": [{"measurement": "effect of gefitinib on proliferation", "setting": "15PC3 cells; gefitinib 20 μM, 48 hours", "value": "did not affect proliferation"}, {"measurement": "effect of gefitinib on proliferation", "setting": "DU145 cells; gefitinib 40 μM, 48 hours", "value": "did not affect proliferation"}, {"measurement": "effect of gefitinib alone on proliferation", "setting": "A549 cells; gefitinib 40 μM, 48 hours", "value": "did not affect proliferation"}, {"measurement": "sensitivity of cells to gefitinib", "setting": "SKBR3 cells; gefitinib alone", "value": "sensitive"}]}
{"compound": "5′-TsAsGscscstsgstscsascststs^MeCsTs^MeC-3′ (lT*lA*lG*dC*dC*dT*dG*dT*dC*dA*dC*dT*dT*l[5mC]*lT*l[5mC]) [ON180]", "values": [{"measurement": "IC50", "setting": "A431 cells", "value": "< 1", "unit": "nM"}, {"measurement": "expression of ErbB3 mRNA", "setting": "ErbB3 mRNA [1]", "value": "potently inhibited"}, {"measurement": "expression of ErbB3 mRNA", "setting": "ErbB3 mRNA [2]", "value": "effectively inhibited"}, {"measurement": "ErbB3 mRNA", "setting": "ErbB3 mRNA [3]", "value": "effectively inhibited"}, {"measurement": "IC50", "setting": "15PC3 cells; ON180 alone, Lipofectamine-2000 transfection, 3B, read-out: cell growth IC50", "value": "< 2", "unit": "nM"}, {"measurement": "expression of ErbB3 mRNA", "setting": "ErbB3 mRNA [4]", "value": "effectively inhibited"}, {"measurement": "IC50", "setting": "DU145 cells; ON180 alone, Lipofectamine-2000 transfection, 4B, read-out: cell growth IC50", "value": "< 5", "unit": "nM"}, {"measurement": "IC50", "setting": "H1993 cells", "value": 1, "unit": "nM"}, {"measurement": "ErbB3 mRNA", "setting": "ErbB3 mRNA [5]", "value": "potently inhibited"}, {"measurement": "IC50", "setting": "A549 cells; ON180 alone, Lipofectamine-2000 transfection, 1B, read-out: cell growth IC50", "value": "< 5", "unit": "nM"}, {"measurement": "IC50", "setting": "SKBR3 cells; ON180 alone, Lipofectamine-2000 transfection, 5B, read-out: cell growth IC50", "value": "< 5", "unit": "nM"}, {"measurement": "IC50", "setting": "ErbB3 mRNA [6]", "value": "< 2", "unit": "nM"}]}
